Assays:
[1] = system: CFTR; assay: Transepithelial conductance and current (Ussing chamber) in polarized Calu-3 epithelia; format: cell-based; conditions: F&I stimulation, GlyH-101 inhibition
Experimental: Freshly dissociated human airway epithelial cells or immortalized cell lines were transfected in pre-coated 96 well plates (Costar) or Transwell™ Permeable Supports (0.33 cm^2 0.4 μm polyester membrane, Costar 3470). Lipofectamine™ RNAiMAX (Invitrogen) was used as a reverse transfection reagent. Pre-coated (with human placental collagen Type IV, Sigma) substrates were incubated with the transfection mix comprising of Opti-MEM (Invitrogen), oligonucleotide (Integrated DNA Technologies) and Lipofectamine™ RNAiMAX (Invitrogen). 15-20 minutes later, 200,000 freshly dissociated cells suspended in DMEM/F-12 were added to each well/insert. […]
Transepithelial Cl^− current measurements were made in Ussing chambers about 2 weeks post-seeding (Itani, 0. A. et al. Human cystic fibrosis airway epithelia have reduced Cl− conductance but not increased Na+ conductance. Proc. Natl. Acad. Sci. USA 108, 10260-10265 (2011)). […] Transepithelial Cl^− current was measured under short-circuit current conditions. […] After measuring baseline current, the transepithelial current (It) response to sequential apical addition of 100 μM amiloride (Amil), 100 μM 4,4′-diisothiocyanoto-stilbene-2,2′-disulfonic acid (DIDS), 4.8 mM [Cl^−], 10 μM forskolin and 100 μM 3-isobutyl-1-methylxanthine (IBMX), and 100 μM GlyH-101 was measured. […]

[2] = system: CFTR-ΔF508; assay: CFTR-ΔF508 mRNA and protein in primary cultures of CF airway epithelia; format: cell-based, human
Experimental: Airway epithelia from human trachea and primary bronchus removed from organs donated for research were cultured at the air-liquid interface (ALI) (Karp, P. H. et al. An in vitro model of differentiated human airway epithelia. Methods for establishing primary cultures. Methods Mol. Biol. 188, 115-137 (2002)). These studies were approved by the Institutional Review Board of the University of Iowa. Briefly, airway epithelial cells were dissociated from native tissue by pronase enzyme digestion. Permeable membrane inserts (0.6 cm^2 Millipore-PCF, 0.33 cm^2 Costar-Polyester) pre-coated with human placental collagen (IV, Sigma) were seeded with freshly dissociated epithelia. […]
First-strand cDNA was synthesized using SuperScript® II (Invitrogen), and oligo-dT and random-hexamer primers. […] To quantitate miRNAs, TaqMan® microRNA Assays (Applied Biosystems) were obtained for miR-138, RNU48 (control) and 8 other miRNAs (negative control, miRs-21, -24, -26a, -200c, -146a, -146b, -27a*, -134). […] All experiments were performed in quadruplicate. mRNA and miRNA quantification in cell lines represents 8 independent transfections in 4 separate experiments. mRNA quantification in human primary airway epithelial cultures represent 8 independent transfections in 8 non-CF donors and 4 CF donors. […]

[3] = system: CFTR; assay: Transepithelial conductance and current (Ussing chamber) in primary human airway epithelia; format: cell-based
Experimental: Airway epithelia from human trachea and primary bronchus removed from organs donated for research were cultured at the air-liquid interface (ALI) (Karp, P. H. et al. An in vitro model of differentiated human airway epithelia. Methods for establishing primary cultures. Methods Mol. Biol. 188, 115-137 (2002)). These studies were approved by the Institutional Review Board of the University of Iowa. Briefly, airway epithelial cells were dissociated from native tissue by pronase enzyme digestion. Permeable membrane inserts (0.6 cm^2 Millipore-PCF, 0.33 cm^2 Costar-Polyester) pre-coated with human placental collagen (IV, Sigma) were seeded with freshly dissociated epithelia. Seeding culture media used was DMEM/F-12 medium supplemented with 5% FBS, 50 units/mL penicillin, 50 μg/mL streptomycin, 50 μg/mL gentamicin, 2 μg/mL fluconazole, and 1.25 μg/mL amphotericin B. For epithelia from cystic fibrosis (CF) patients, the following additional antibiotics were used for the first 5 days: 77 μg/mL ceftazidime, 12.5 μg/mL imipenem and cilastatin, 80 μg/mL tobramycin, 25 μg/mL piperacillin and tazobactam, 20 μg/mL sulfamethoxazole, and 4 μg/mL trimethoprim. After seeding, the cultures were maintained in DMEM/F-12 medium supplemented with 2% Ultroser G (USG, Pall Biosepra) and the above listed antibiotics.
Transepithelial Cl^− current measurements were made in Ussing chambers about 2 weeks post-seeding (Itani, 0. A. et al. Human cystic fibrosis airway epithelia have reduced Cl− conductance but not increased Na+ conductance. Proc. Natl. Acad. Sci. USA 108, 10260-10265 (2011)). Briefly, primary cultures were mounted in a modified Ussing chamber (Jim's Instruments, 8 wells per instrument). Transepithelial Cl^− current was measured under short-circuit current conditions. Cultures were incubated overnight with 10 μM forskolin and 100 μM 3-isobutyl-1-methylxanthine (IBMX). After measuring baseline current, the transepithelial current (It) response to sequential apical addition of 100 μM amiloride (Amil), 100 μM 4,4′-diisothiocyanoto-stilbene-2,2′-disulfonic acid (DIDS), 4.8 mM [Cl^−], 10 μM forskolin and 100 μM 3-isobutyl-1-methylxanthine (IBMX), and 100 μM GlyH-101 was measured. Studies were conducted with a Cl^− concentration gradient containing 135 mM NaCl, 1.2 mM MgCl2, 1.2 mM CaCl2, 2.4 mM K2PO4, 0.6 mM KH2PO4, 5 mM dextrose, and 5 mM Hepes (pH 7.4) on the basolateral surface, and gluconate substituted for Cl^− on the apical side. […]

Substance	CFTR-mediated conductance (Gt) and current (It) [1]	CFTR-ΔF508 mRNA and protein [2]	It (transepithelial current) response to cAMP-dependent stimulation [3]	cAMP-stimulated Gt [3]
miR-138 mimic: synthetic modified RNA duplex, sense SEQ ID NO: 4, antisense SEQ ID NO: 5, showing miR-138-like activity	increased	increased	no change	increased
SIN3A DsiRNA: Dicer-substrate siRNA against SIN3A, sense SEQ ID NO: 6, antisense SEQ ID NO: 7 (sense GCGAUACAUGAAUUCAGAUACUACC; antisense GGUAGUAUCUGAAUUCAUGUAUCGCUC; chemistry not given here)	increased	increased	no change	increased

From patent US20150045410A1, “METHOD OF REGULATING CFTR EXPRESSION AND PROCESSING” (University of Iowa Research Foundation, priority 2012, published 2015)
